Reference: patent US20240247080A1, “GLP1/GIP/NPY2 RECEPTOR TRIPLE AGONISTS” (Boehringer Ingelheim International GmbH, priority 2022, published 2024)
Read-outs that look alike come from different tables or passages of the source. Starred links: 1 amine or outer side, 2 acyl side, 3 side chain; linkers in the order of their positions; H or OH if unused. Non-standard residues stand in square brackets, D forms with d. Groups on a side chain read outwards from the residue. No end group written: not given here. *: point of attachment. C18 diacid = O=C(O)CCCCCCCCCCCCCCCCC(=O)*; γGlu = O=C(O)[C@H](CCC(=O)[*:2])N[*:1]; AEEA = NCCOCCOCC(=O)O; Aib = CC(C)(N)C(=O)O

Columns and labels:
hGLP1R = biological target: T1, hGLP1R (Homo sapiens, UniProt P43220); assay: hGLP1R CreLuc reporter gene assay in 0.5% and 100% plasma; type: cell-based; conditions: CreLuc reporter gene assay
T1 construct: expressed in transfected cells; host or cells: HEK-293 cells carrying a CRE-luciferase reporter gene
T1 sequence (P43220 24-463): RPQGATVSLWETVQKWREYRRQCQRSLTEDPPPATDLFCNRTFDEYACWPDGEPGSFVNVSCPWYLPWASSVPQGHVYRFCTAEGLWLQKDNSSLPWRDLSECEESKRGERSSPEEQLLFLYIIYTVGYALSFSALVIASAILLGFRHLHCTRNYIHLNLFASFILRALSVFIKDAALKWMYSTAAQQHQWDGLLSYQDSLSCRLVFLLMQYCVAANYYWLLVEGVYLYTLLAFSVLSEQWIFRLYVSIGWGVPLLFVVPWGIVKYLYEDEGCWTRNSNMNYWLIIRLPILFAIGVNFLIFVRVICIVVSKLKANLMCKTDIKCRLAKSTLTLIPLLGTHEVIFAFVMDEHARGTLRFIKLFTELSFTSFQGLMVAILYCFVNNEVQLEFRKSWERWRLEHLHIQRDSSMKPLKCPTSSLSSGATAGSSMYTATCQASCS
In short: (§1)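 HEK cells (GLP-1R, NPY2R) or CHO cells (GIPR) carrying a CRE-luciferase reporter, incubated 4 h at 37 °C with peptides in HBSS/20 mM HEPES pH 7.4 plus 0.5% human plasma, or in 100% plasma. Luminescence read; EC50 from 8-point variable-slope sigmoid fits.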

hGIPR = biological target: T2, hGIPR (Homo sapiens, UniProt P48546); assay: hGIPR CreLuc reporter gene assay in 0.5% and 100% plasma; type: cell-based; conditions: CreLuc reporter gene assay
T2 construct: expressed in transfected cells; host or cells: CHO cells carrying a CRE-luciferase reporter gene
T2 sequence (P48546 22-466): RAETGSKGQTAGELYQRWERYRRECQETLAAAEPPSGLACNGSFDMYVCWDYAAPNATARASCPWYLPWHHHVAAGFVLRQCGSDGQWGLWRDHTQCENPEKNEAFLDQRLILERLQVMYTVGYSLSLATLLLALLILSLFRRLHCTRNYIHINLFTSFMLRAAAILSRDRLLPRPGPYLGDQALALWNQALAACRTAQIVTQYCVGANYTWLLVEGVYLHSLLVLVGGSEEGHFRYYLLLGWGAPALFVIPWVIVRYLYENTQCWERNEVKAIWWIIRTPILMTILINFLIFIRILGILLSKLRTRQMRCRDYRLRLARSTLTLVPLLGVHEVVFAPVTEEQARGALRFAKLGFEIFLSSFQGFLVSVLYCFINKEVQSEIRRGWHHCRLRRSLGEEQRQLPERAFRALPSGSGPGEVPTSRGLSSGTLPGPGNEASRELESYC
In short: as §1

[1] = Effect on acute food intake in normal NMRI mice; type: in vivo; conditions: 30 nmol/kg subcutaneously once, normalized to vehicle group, male NMRI mice
Procedure: Example 4: Effect on Acute Food Intake in Normal NMRI Mice
Male NMRI mice were obtained from Janvier (Janvier Labs, France) or from Charles River (Charles River Research Models & Services Germany GmbH) at the age of 3 weeks. The animals get a microchip (Datamars, Slim Microchip T-SL) for individual identification after delivery. They were housed with 4 mice per cage under a 12/12 dark-light cycle, light off at 3 p.m. Room temperature was controlled to 21° C. +/−1° C. and humidity 60%+/−20%. Mice had ad libitum access to regular rodent chow (KLIBA Nafag 3040 or Altromin 1324, Brogaarden, Denmark) and tap water.
Latest transfer into the HM2-System of MBRose, Denmark (real-time monitoring system of food- and water intake) of the animals 5 days before study start, to allow acclimatization to experimental conditions. As the animals were uniquely identified with the microchips, each individual animal was identified by its own microchip upon entry and exit from the food channel via antennae. Randomization of the mice for each study group (n=8; age earliest 6 weeks old) was based on food intake (middle of last three days 24 h-Intervall) and bodyweight directly before start of the study. A vehicle treated (50 mM phosphate buffer pH7.4 with 3.5% Mannitol) group was included in each experiment. To have the same nutrition standard for each animal the food access was locked eight hours before dark phase. One hour before night, the animals were once treated subcutaneously with the test peptide. Food intake was reported hourly for a period of 24 h.

[2] = Mouse PK after intravenous application; type: in vivo; conditions: mean residence time, intravenous 30-60 nmol/kg, male NMRI mice
Procedure: Pharmacokinetic parameters of the peptides were determined after intravenous application to NMRI mice. Male NMRI mice were obtained from Janvier Laboratories (France) weighing 30 to 40 g. Mice were housed in standard cages with a 12:12 hour light:dark cycle and standard food and water access ad libitum. Each test peptide was dissolved in 50 mM phosphate buffer (pH 7.4)/3.5% mannitol. Intravenous application of 30-60 nmol/kg was performed via the tail vein. Serial blood samples from conscious mice were collected from the saphenous vein in EDTA-containing vials at different time points up to 56 hours post-dosing. Subsequently, plasma was prepared by centrifugation for 5 min at approximately 5000 rpm and stored at −20° C. until quantification of the peptide plasma levels by liquid chromatography mass spectrometry (LC-MS). Individual plasma concentration—time profiles were analysed by a non-compartmental approach and the resulting pharmacokinetic parameters were calculated.

hNPY2R = biological target: T3, hNPY2R (Homo sapiens, UniProt P49146); assay: hNPY2R CreLuc reporter gene assay in 0.5% and 100% plasma; type: cell-based; conditions: CreLuc reporter gene assay
T3 construct: expressed in transfected cells; host or cells: HEK-293 cells carrying a CRE-luciferase reporter gene
T3 sequence (P49146 1-381): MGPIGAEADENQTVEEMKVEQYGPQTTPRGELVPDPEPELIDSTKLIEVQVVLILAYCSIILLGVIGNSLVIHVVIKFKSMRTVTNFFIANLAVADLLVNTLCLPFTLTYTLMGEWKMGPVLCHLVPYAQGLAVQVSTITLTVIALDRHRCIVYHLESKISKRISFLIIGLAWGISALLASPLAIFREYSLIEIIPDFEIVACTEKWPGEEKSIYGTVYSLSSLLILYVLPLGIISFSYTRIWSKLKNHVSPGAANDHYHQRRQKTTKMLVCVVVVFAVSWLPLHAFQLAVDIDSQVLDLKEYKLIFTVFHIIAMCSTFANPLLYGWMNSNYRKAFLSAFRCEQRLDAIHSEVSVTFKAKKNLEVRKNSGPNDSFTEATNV
In short: as §1

[3] = 0.5% human plasma, read-out: hGLP1R 0.5% hP
[4] = 0.5% human plasma, read-out: hGIPR 0.5% hP
[5] = 100% human plasma, read-out: hGIPR 100% hP
[6] = 0.5% human plasma, read-out: hNPY2R 0.5% hP

| EC50 (hGLP1R; [3]) [nM] | EC50 (hGIPR; [4]) [nM] | EC50 (hGIPR; [5]) [nM] | MRT ([2]; plasma) [h] | EC50 (hNPY2R; [6]) [nM] | EC50 (hNPY2R; 100% human plasma, read-out: hNPY2R 100% hP) [nM] | MRT ([2]; in vivo) [h] | EC50 (hGLP1R; 100% human plasma, read-out: hGLP1R 100% hP) [nM] | Compound | Acute Food Intake 24 h 30 nmol/kg [% CTL] [1] [% CTL] |
| --- | --- | --- | --- | --- | --- | --- | --- | --- | --- |
| 0.17 | 0.29 | 1.83 | 12.1 | 10.2 | 42.6 |  |  | CC[C@H](C)[C@H](NC(=O)[C@H](CC(C)C)NC(=O)[C@H](Cc1c[nH]c2ccccc12)NC(=O)[C@H](CCC(N)=O)NC(=O)[C@@H](NC(=O)[C@H](Cc1ccccc1)NC(=O)[C@H](C)NC(=O)C(C)(C)NC(=O)[C@H](CCC(N)=O)NC(=O)[C@H](C)NC(=O)[C@H](CCC(N)=O)NC(=O)[C@H](CCCCN)NC(=O)[C@H](CCC(=O)O)NC(=O)[C@H](CC(C)C)NC(=O)C(C)(C)NC(=O)[C@@H](NC(=O)[C@H](CO)NC(=O)[C@H](Cc1ccc(O)cc1)NC(=O)[C@H](CC(=O)O)NC(=O)[C@H](CO)NC(=O)[C@@H](NC(=O)[C@H](Cc1ccccc1)NC(=O)[C@@H](NC(=O)CNC(=O)[C@H](CCC(=O)O)NC(=O)C(C)(C)NC(=O)[C@@H](N)Cc1ccc(O)cc1)[C@@H](C)O)[C@@H](C)O)[C@@H](C)CC)C(C)C)C(=O)N[C@@H](CCCCNC(=O)[C@@H](N)CCCCNC(=O)CC[C@H](NC(=O)CC[C@H](NC(=O)CC[C@H](NC(=O)CC[C@H](NC(=O)CC[C@H](NC(=O)CC[C@H](NC(=O)CCCCCCCCCCCCCCCCCCC(=O)O)C(=O)O)C(=O)O)C(=O)O)C(=O)O)C(=O)O)C(=O)O)C(=O)NCC(=O)NCC(=O)N1CCC[C@H]1C(=O)N[C@@H](CO)C(=O)N[C@@H](CCC(=O)O)C(=O)NCC(=O)N[C@@H](C)C(=O)N[C@@H](CO)C(=O)N[C@@H](CC(C)C)C(=O)N[C@@H](CCCNC(=N)N)C(=O)N[C@@H](Cc1c[nH]cn1)C(=O)N[C@@H](Cc1ccc(O)cc1)C(=O)N[C@@H](Cc1ccc(O)cc1)C(=O)N[C@@H](CC(N)=O)C(=O)N[C@@H](Cc1c[nH]c2ccccc12)C(=O)N[C@@H](CC(C)C)C(=O)N[C@H](C(=O)N[C@@H](CCCNC(=N)N)C(=O)N[C@@H](CCC(N)=O)C(=O)N[C@@H](CCCNC(=N)N)C(=O)N[C@@H](Cc1ccc(O)cc1)C(N)=O)[C@@H](C)O [Compound 220, Y-Aib-E-G-T-F-T-S-D-Y-S-I-Aib-L-E-K-Q-A-Q-Aib-A-F-V-Q-W-L-I-K(1,3)-GGPSEGASLRHYYNWLTRQRY-NH2.C20DA-gGlu-gGlu-gGlu-gGlu-gGlu-gGlu-eLys(1,2)] | 45 |
|  |  |  |  |  |  | 11 |  | CC[C@H](C)[C@H](NC(=O)[C@H](CC(C)C)NC(=O)[C@H](Cc1c[nH]c2ccccc12)NC(=O)[C@H](CCC(=O)O)NC(=O)[C@@H](NC(=O)[C@H](Cc1ccccc1)NC(=O)[C@H](C)NC(=O)C(C)(C)NC(=O)[C@H](CCC(N)=O)NC(=O)[C@H](C)NC(=O)[C@H](CCC(N)=O)NC(=O)[C@H](CCCCN)NC(=O)[C@H](CCC(=O)O)NC(=O)[C@H](CC(C)C)NC(=O)C(C)(C)NC(=O)[C@@H](NC(=O)[C@H](CO)NC(=O)[C@H](Cc1ccc(O)cc1)NC(=O)[C@H](CC(=O)O)NC(=O)[C@H](CO)NC(=O)[C@@H](NC(=O)[C@H](Cc1ccccc1)NC(=O)[C@@H](NC(=O)CNC(=O)[C@H](CCC(=O)O)NC(=O)C(C)(C)NC(=O)[C@@H](N)Cc1ccc(O)cc1)[C@@H](C)O)[C@@H](C)O)[C@@H](C)CC)C(C)C)C(=O)N[C@@H](CCCCNC(=O)[C@@H](N)CCCCNC(=O)[C@H](CCC(=O)O)NC(=O)CC[C@H](NC(=O)CC[C@H](NC(=O)CC[C@H](NC(=O)CC[C@H](NC(=O)CC[C@H](NC(=O)CCCCCCCCCCCCCCCCCCC(=O)O)C(=O)O)C(=O)O)C(=O)O)C(=O)O)C(=O)O)C(=O)NCC(=O)NCC(=O)N1CCC[C@H]1C(=O)N[C@@H](CO)C(=O)N[C@@H](CCC(=O)O)C(=O)NCC(=O)N[C@@H](C)C(=O)N[C@@H](CO)C(=O)N[C@@H](CC(C)C)C(=O)N[C@@H](CCCNC(=N)N)C(=O)N[C@@H](Cc1c[nH]cn1)C(=O)N[C@@H](Cc1ccc(O)cc1)C(=O)N[C@@H](Cc1ccc(O)cc1)C(=O)N[C@@H](CC(N)=O)C(=O)N[C@@H](Cc1c[nH]c2ccccc12)C(=O)N[C@@H](CC(C)C)C(=O)N[C@H](C(=O)N[C@@H](CCCNC(=N)N)C(=O)N[C@@H](CCC(N)=O)C(=O)N[C@@H](CCCNC(=N)N)C(=O)N[C@@H](Cc1ccc(O)cc1)C(N)=O)[C@@H](C)O [Compound 286, Y-Aib-E-G-T-F-T-S-D-Y-S-I-Aib-L-E-K-Q-A-Q-Aib-A-F-V-E-W-L-I-K(1,3)-GGPSEGASLRHYYNWLTRQRY-NH2.C20DA-gGlu-gGlu-gGlu-gGlu-gGlu-Glu-eLys(1,2)] | 58 |
| 0.35 | 0.37 | 1.82 |  | 20.7 |  |  | 16.7 | H-Y[Aib]EGTFTSDYSI[Aib]LEKQAQ[Aib]EFVEWLIK([γGlu-γGlu-γGlu-γGlu-C18 diacid])GGPSEGASLRHYYNWLTRQRY-NH2 [Compound 276, Y-Aib-E-G-T-F-T-S-D-Y-S-I-Aib-L-E-K-Q-A-Q-Aib-E-F-V-E-W-L-I-K(1,3)-GGPSEGASLRHYYNWLTRQRY-NH2.C18DA-gGlu-gGlu-gGlu-gGlu(1,2)] | 60 |
| 0.51 | 0.33 | 0.8 | 6.8 | 18.8 |  |  |  | Y[Aib]EGTFTSDYSI[Aib]LEKQAQ[Aib]EFVEWLIK([AEEA-AEEA-γGlu-γGlu-γGlu-C18 diacid])GGPSEGASLRHYYNWLTRQRY-NH2 [Compound 284, Y-Aib-E-G-T-F-T-S-D-Y-S-I-Aib-L-E-K-Q-A-Q-Aib-E-F-V-E-W-L-I-K(1,3)-GGPSEGASLRHYYNWLTRQRY-NH2.C18DA-gGlu-gGlu-gGlu-OEG-OEG(1,2)] |  |
